Assay results: ChEMBL document CHEMBL1124140, “Oxidants, oxidant drugs, and malaria” (J Med Chem, 1988)

Key:
[1] = test system: Plasmodium falciparum; assay: Inhibitory activity against Chloroquine-resistant Plasmodium falciparum; assay type: functional; details: read-out: ED50 (the source's name)
[2] = test system: Plasmodium falciparum; assay: (§1) Inhibitory activity against Chloroquine-sensitive Plasmodium falciparum; assay type: functional; details: read-out: ED50 (the source's name)
[3] = test system: Plasmodium falciparum; assay: In vitro inhibition against Plasmodium falciparum; […]; assay type: functional, organism-based
[4] = test system: Plasmodium falciparum; assay: Inhibitory activity against chloroquine-resistant Plasmodium falciparum; assay type: functional, organism-based
[5] = test system: Plasmodium falciparum; assay: as §1; assay type: functional, organism-based
[6] = test system: Plasmodium falciparum; assay: (§2) In vitro inhibition against Plasmodium falciparum; assay type: functional, organism-based
[7] = test system: Plasmodium falciparum; assay: as §2; assay type: functional; details: read-out: ED50 (the source's name)

CC(C)C12CCC(C)(CC1)OO2 showed an EC50 [1] of 210 nM and an EC50 [2] of 80 nM.
C[C@@H]1CC[C@H]2[C@@H](C)C(=O)O[C@@H]3O[C@@]4(C)CC[C@@H]1[C@]32OO4 [ARTEMISININ] showed an IC50 [3] of 4 nM.
Work on CC(C)(C)OC(=O)OC1CCC2C[C@@H]3C=CC2(OO3)C1(C)C (some centres not stated) yielded an IC50 [4] of 330 nM and an IC50 [5] of 190 nM.
Compound CC(C)(C)COO has an IC50 [6] of 41000 nM.
With CC1=C2[C@H]3OC(=O)[C@@H](C)[C@@H]3CC[C@@]2(C)C=CC1=O [SANTONIN] the EC50 [7] was 2800 nM.
